{"source": "paper PMC5147024", "about": "“Combined Whole-Cell High-Throughput Functional Screening for Identification of New Nicotinamidases/Pyrazinamidases in Metagenomic/Polygenomic Libraries” (Frontiers in Microbiology, 2016)", "target": "T1, PolyNic (polygenomic nicotinamidase)", "T1 construct": "588 bp PCR product in pET-46 Ek/LIC, expressed in E. coli Rosetta 2 (DE3); dimer", "experiment": "HPLC nicotinamidase assay, Morrison fit, NAM as substrate (Ki […] with PZA as substrate)", "format": "biochemical"}
{"smiles": "O=Cc1cccnc1", "note": "[nicotinaldehyde]", "values": [{"measurement": "Ki", "result": 180, "unit": "nM"}]}
